One test concerns the target T1, VbTA T16F (Virgibacillus pantothenticus, UniProt A0A4P1LYG1).
T1 construct: N-terminal His-tag (pET100-D-TOPO), codon-optimised, E. coli BL21(DE3), His-trap purified; native 448 residues (1350 bp); homodimer 104 kDa; residues 2-444 in crystal
Description: X-ray crystal structure, […] Å. In kind it is binding. The conditions noted are these: active site; non-covalent, no aldimine bond with K273.

For test [1], the target named is VbTA T16F (transaminase from Virgibacillus sp. 21D, T16F mutant) (Virgibacillus sp. 21D). As to the kind of experiment: SEC; Superdex 200 (10/300) GL, 20 mM phosphate buffer pH 8.0, 150 mM NaCl, 0.2 mL/min, 4 °C, calibrated with MW markers.

T1 sequence (A0A4P1LYG1 entry or part of it, stated change not applied): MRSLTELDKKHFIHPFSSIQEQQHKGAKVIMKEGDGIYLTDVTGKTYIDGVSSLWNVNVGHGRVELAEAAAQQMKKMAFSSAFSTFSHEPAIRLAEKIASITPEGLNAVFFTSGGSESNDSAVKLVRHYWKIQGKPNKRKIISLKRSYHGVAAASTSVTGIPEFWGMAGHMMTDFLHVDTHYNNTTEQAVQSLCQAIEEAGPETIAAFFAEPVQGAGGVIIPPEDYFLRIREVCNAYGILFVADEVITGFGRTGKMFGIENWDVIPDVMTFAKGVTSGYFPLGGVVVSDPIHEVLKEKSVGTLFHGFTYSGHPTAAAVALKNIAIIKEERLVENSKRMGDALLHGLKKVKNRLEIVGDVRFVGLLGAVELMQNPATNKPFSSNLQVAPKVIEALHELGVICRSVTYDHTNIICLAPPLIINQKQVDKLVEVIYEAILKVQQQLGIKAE

As to `Cc1ncc(COP(=O)(O)O)c(C=O)c1O` [PLP], the “X-ray crystal structure, 2.0 Å” value on VbTA T16F was “One molecule of PLP was bound at the active site”. A word on the stoichiometry N: it is a count of units in the complex or per binding partner. For the compound “VbTA T16F (transaminase from Virgibacillus sp. 21D, T16F mutant) (enzyme)”, the stoichiometry N in test [1] amounted to 2.

These data come from PMC6219536, “Strategic single point mutation yields a solvent- and salt-stable transaminase from Virgibacillus sp. in soluble form” (Scientific Reports, 2018).
